Measurements as given in US20100137294A1, “COMPOUNDS, COMPOSITIONS AND METHODS FOR CONTROLLING INVERTEBRATE PESTS” (GENETIC TECHNOLOGIES LIMITED, priority 2006, published 2010).

Test system: H. contortus L3 larvae
Assay: Testing compounds on H. contortus L3 larvae (96-well microplate larval kill assay)
Type: cell-based, Haemonchus contortus
Details: secondary screening, sequential ten-fold dilutions of 5 mM down to 0.5
Protocol: The L3 stage of H. contortus was collected from the faeces of experimentally infected sheep and stored in water at room temperature until needed. A stock solution of each compound was prepared by suspending the compound in 100% dimethyl sulphoxide (DMSO) to a final concentration of 100 mM.
For this set of experiments, Trichostrongylus vitrinus (T. vitrinus) L3 larvae were used as positive controls by testing with the compounds identified in previous experiments as being able to kill all larvae. Approximately 50 L3 larvae of each species were added, in 95 μl of water, to the wells of a 96-well microtitre plate. All compounds were tested initially at a concentration of 5 mM by adding 5 μl of inhibitor in 100% DMSO.
The plates were incubated overnight at room temperature (RT). Plates were viewed under a binocular microscope and the compounds showing 100% kill of H. contortus larvae were determined. Concentrations above 5 mM were not tested as DMSO alone kills larvae when the proportion exceeds 5% of the total volume. Many of the compounds are predicted to have limited solubility in aqueous solution, thus requiring the presence of organic solvent. Additional controls included wells with and without various concentrations of DMSO alone.
Eight inhibitors, from the primary screening, appeared to kill 90-100% of H. contortus L3 larvae at a concentration of 5 mM. […]

Structure (SMILES)	killing of H. contortus L3 larvae across the dilution series
O=C1C2C(C(=O)N1CCO)[C@H]1CC[C@@H]2O1 (some centres unmarked) [Compound 15, N-Ethyl alcohol-7-Oxabicyclo(2.2.1)heptane-2,3-dicarboximide]	killed the larvae at the highest and lowest concentrations used

Test system: T. vitrinus L3 larvae
Assay: Testing of compounds on T. vitrinus L3 larvae (96-well microplate larval kill assay)
Type: cell-based, Trichostrongylus vitrinus
Details: primary screening, 5 mM compound, 5% DMSO, overnight RT
Protocol: The ability of the compounds to kill T. vitrinus L3 larvae was tested. The L3 stage is encased in a sheath, which protects the larva from external stresses such as desiccation and chemicals. This makes it more difficult to kill this part of the lifecycle with chemotherapeutic agents. The tests will determine which compounds can kill this lifestage, therefore defining which compounds can penetrate through the sheath and subsequently kill the larva.
The L3 stage of T. vitrinus were collected and stored in water at 4° C. until needed. Each compound was suspended in 100% dimethyl sulphoxide (DMSO) to a final concentration of 100 mM.
Around fifty L3 larvae were added, in 95 μl of water, to the wells of a 96-well microtitre plate. The plate was incubated overnight RT. Plates were viewed under a binocular microscope and the proportion of dead L3 larvae in the controls and each treatment were scored. Concentrations above 5 mM were not tested as DMSO alone kills larvae when the proportion exceeds 5% of the total volume. Many of the compounds are predicted to have limited solubility in aqueous solution, thus requiring the presence of organic solvent. The appropriate controls included wells with and without various concentrations of DMSO alone.
Three compounds ((4), (10) and (20)) could also kill 100% of larvae exposed at 0.5 mM.

Structure (SMILES)	% of T. vitrinus L3 larvae killed
CCCN1C(=O)C2C(C1=O)[C@H]1CC[C@@H]2O1 (some centres unmarked) [Compound 4, N-propyl-7-Oxabicyclo(2.2.1)heptane-2,3-dicarboximide]	100%
CCCCN1C(=O)C2C3CCC(O3)C2C1=O (centres unmarked) [Compound 5, N-butyl-7-Oxabicyclo(2.2.1)heptane-2,3-dicarboximide]	100%
CCCCCCCCN1C(=O)C2C3CCC(O3)C2C1=O (centres unmarked) [Compound 6, N-octyl-7-Oxabicyclo(2.2.1)heptane-2,3-dicarboximide]	100%
CCCCCCCCCCN1C(=O)C2C3CCC(O3)C2C1=O (centres unmarked) [Compound 7, N-decyl-7-Oxabicyclo(2.2.1)heptane-2,3-dicarboximide]	100%
O=C(O)C1C(C(=O)NCCN2CCOCC2)[C@H]2CC[C@@H]1O2 (some centres unmarked) [Compound 12, 3-(Ethylmorpholinecarbamoyl)-7-Oxabicyclo(2.2.1)heptane-2-carboxylic acid]	100%
O=C(O)C(Cc1ccc(O)cc1)N1C(=O)C2C(C1=O)[C@H]1CC[C@@H]2O1 (some centres unmarked) [Compound 19]	100%
O=C1NC(=O)C2C1[C@@H]1CC[C@H]2O1 (stereo partly drawn) [Compound 20, exo-7-Oxabicyclo(2.2.1)heptane-2,3-dicarboximide]	100%

Same assay, conditions: secondary screening, serial ten-fold dilutions, 0.5 mM

Structure (SMILES)	% of T. vitrinus L3 larvae killed
CCCN1C(=O)C2C(C1=O)[C@H]1CC[C@@H]2O1 (some centres unmarked) [Compound 4, N-propyl-7-Oxabicyclo(2.2.1)heptane-2,3-dicarboximide]	100%
O=C1NC(=O)C2C1[C@@H]1CC[C@H]2O1 (stereo partly drawn) [Compound 20, exo-7-Oxabicyclo(2.2.1)heptane-2,3-dicarboximide]	100%

Test system: not given
Assay: not given
Details: not given

Structure (SMILES)	melting point
O=C(O)C1C(C(=O)N2CCCCC2)[C@H]2CC[C@@H]1O2 (some centres unmarked)	140 to 142 °C
CC(C)(C)c1ccccc1NC(=O)C1C(C(=O)O)[C@@H]2CC[C@H]1O2 (some centres unmarked)	163 to 164 °C
CCC(C)C12CCC(O1)C1C(=O)NC(=O)C12 (centres unmarked)	44 to 46 °C
O=C1NC(=O)C2C1C1CCC2(C2CCCCC2)O1 (centres unmarked)	97 to 99 °C
CCCCCCCCCCCCC12CCC(O1)C1C(=O)NC(=O)C12 (centres unmarked)	35 to 37 °C
CCCCCCCCCCCCCCC12CCC(O1)C1C(=O)NC(=O)C12 (centres unmarked)	45 to 46 °C
CCCCCCCCCCCCCCCCCCC12CCC(O1)C1C(=O)NC(=O)C12 (centres unmarked)	62 to 64 °C
C=CCC12CCC(O1)C1C(=O)NC(=O)C12 (centres unmarked)	116 to 117 °C
O=C1NC(=O)C2C1C1CCC2(CCCO)O1 (centres unmarked)	164 to 166 °C
O=C1NC(=O)C2C1C1CCC2(CCCCCCO)O1 (centres unmarked)	56 to 57 °C
CC(CO)C12CCC(O1)C1C(=O)NC(=O)C12 (centres unmarked)	104 to 107 °C
CC(C)(CO)C12CCC(O1)C1C(=O)NC(=O)C12 (centres unmarked)	134 to 136 °C
O=C1NC(=O)C2C1C1CCC2(N2CCOCC2)O1 (centres unmarked)	169 to 171 °C
O=C1NC(=O)C2C1C1CCC2(c2ccccc2)O1 (centres unmarked)	171 to 172 °C
O=C1NC(=O)C2C1C1CCC2(c2ccc([N+](=O)[O-])cc2)O1 (centres unmarked)	207 to 209 °C
COc1ccc(CC23CCC(O2)C2C(=O)NC(=O)C23)cc1 (centres unmarked)	83 to 85 °C
COc1ccc(CC23CCC(O2)C2C(=O)NC(=O)C23)cc1OC (centres unmarked)	155 to 157 °C
Nc1ccccc1CC12CCC(O1)C1C(=O)NC(=O)C12 (centres unmarked)	159 to 160 °C
CCCCN(C(=O)C1C2CCC(O2)C1C(=O)O)c1ccccc1 (centres unmarked)	105 to 107 °C

Structure (SMILES)	melting point
CN(C)CCOc1ccc(N2C(=O)C3C(C2=O)[C@H]2CC[C@@H]3O2)cc1 (some centres unmarked)	145 to 146 °C
C=CCCN1C(=O)C2C(C1=O)[C@H]1CC[C@@H]2O1 (some centres unmarked)	64 to 65 °C
CCC12CCC(O1)C1C(=O)NC(=O)C12 (centres unmarked)	166 to 169 °C
O=C(O)C1C(C(=O)NC2CCN(Cc3ccccc3)CC2)[C@H]2CC[C@@H]1O2 (stereo in doubt)	124 to 125 °C
O=C(O)c1ccc(NC(=O)C2C(C(=O)O)[C@@H]3CC[C@H]2O3)cc1Cl (stereo in doubt)	216 to 217 °C
CCCCCCCCNC(=O)C1C(C(=O)O)[C@@H]2CC[C@H]1O2 (stereo in doubt)	131 °C
CCCCCCCCCCNC(=O)C1C(C(=O)O)[C@@H]2CC[C@H]1O2 (stereo in doubt)	110 to 111 °C
C=CCNC(=O)C1C(C(=O)O)[C@@H]2CC[C@H]1O2 (stereo in doubt)	105 to 107 °C
CCc1ccccc1NC(=O)C1C(C(=O)O)[C@@H]2CC[C@H]1O2 (stereo in doubt)	171 to 172 °C
O=C(O)CCCCCCCNC(=O)C1C(C(=O)O)[C@@H]2CC[C@H]1O2 (stereo in doubt) [Compound 18, 3-(7-Carboxyheptylcarbamoyl)-7-oxabicyclo[2.2.1]heptane-2-carboxylic acid]	125 to 126 °C
Cn1ccc2c(CNC(=O)C3C(C(=O)O)[C@@H]4CC[C@H]3O4)cccc21 (stereo in doubt) [Compound 80, 3-[(1-Methyl-1H-indol-4-yl)methylcarbamoyl]-7-oxabicyclo[2.2.1]heptane-2-carboxylic acid]	161 °C
O=C(O)CCCN1C(=O)C2C(C1=O)[C@H]1CC[C@@H]2O1 (some centres unmarked) [Compound 13, N-Butanoic acid-7-Oxabicyclo(2.2.1)heptane-2,3-dicarboximide]	162 to 164 °C
O=C(O)CCCCCN1C(=O)C2C(C1=O)[C@H]1CC[C@@H]2O1 (some centres unmarked) [Compound 14, N-Hexanoic acid-7-Oxabicyclo(2.2.1)heptane-2,3-dicarboximide]	110 to 112 °C
O=C1C2C(C(=O)N1CCO)[C@H]1CC[C@@H]2O1 (some centres unmarked) [Compound 15, N-Ethyl alcohol-7-Oxabicyclo(2.2.1)heptane-2,3-dicarboximide]	164 to 166 °C
COC(CO)CN1C(=O)[C@@H]2[C@H](C1=O)[C@H]1CC[C@@H]2O1 (some centres unmarked) [Compound 16, N-2-Methoxypropyl-1-ol-7-Oxabicyclo(2.2.1)heptane-2,3-dicarboximide]	96 to 97 °C
O=C1C2C(C(=O)N1c1ncccc1OCc1ccccc1)[C@H]1CC[C@@H]2O1 (some centres unmarked) [Compound 77, 3-[3-(Benzyloxy)pyridin-2-yl]-10-oxa-4-azatricyclo[5.2.1]decane-3,5-dione]	99 to 102 °C
CN(C)CCOc1ccccc1N1C(=O)C2C(C1=O)[C@H]1CC[C@@H]2O1 (some centres unmarked) [Compound 79, 4,{2,[2-(Dimethylamino)ethoxy]phenyl}-10-oxa-4-azatricyclo[5.2.1]decane-3,5-dione]	113 to 115 °C
O=C(O)C1C(C(=O)NCC2OCCc3sccc32)[C@H]2CC[C@@H]1O2 (some centres unmarked) [Compound 81, 3,[(6,7-Dihydro-4H-thieno[3,2-c]pyran-4-yl)methylcarbamoyl]-7-oxabicyclo[2.2.1]heptane-2-carboxylic acid]	159 to 160 °C
